Source: US5122514A, “Psoriasis treatment” (Abbott Laboratories, priority 1991, dated 1992)
Counter-ions that a name gives are not always drawn.

Test system: psoriatic lesions on the patient's elbow, face and scalp
Assay: Grading of psoriatic lesions in a patient after intravenous enalkiren
Format: in vivo, human
Parameters: key to Right Elbow Lesions lesion severity, lesion ranking: 0: Complete clearing; 1: Minimal severity; 2: Moderately severe; 3: Severe; 4: More severe; key to Right Elbow Lesions erythema, lesion ranking / Face Lesions erythema, lesion ranking / Scalp Lesions erythema, lesion ranking: 0: None; 1: Very Mild: light red/pink; 2: Moderate: red but still not dark in texture; 3: Strong: very red, possibly dark; 4: Extreme: angry red
Description: A patient with documented psoriasis received 0.1 mg/kg of enalkiren (H-((beta,beta-dimethyl)-beta-Ala)-(4-OCH3)Phe-His amide of 2(S)-amino-1cyclohexyl-3(R), 4(S)-dihydroxy-6-methylheptane diacetic acid salt)(enalkiren 5.0 mg/5 ml (0.1% concentration), glacial acetic acid 0.91 mg/5ml and sodium chloride 43.9 mg/5 ml in water for injection) intravenously over a 5 minute period, followed 40 minutes later by administration of an additional 0.3 mg/kg of enalkiren intravenously over a 5 minute period. The psoriatic lesions on the patient's elbow, face and scalp were graded prior to treatment and 2, 4 and 7 days following treatment.

[1] = +2 Days after 0.1 mg/kg then 0.3 mg/kg intravenously
[2] = +4 Days after 0.1 mg/kg then 0.3 mg/kg intravenously
[3] = +7 Days after 0.1 mg/kg then 0.3 mg/kg intravenously
[4] = Treatment Day (graded prior to treatment), person with psoriasis

COc1ccc(C[C@H](NC(=O)CC(C)(C)N)C(=O)N[C@@H](Cc2cnc[nH]2)C(=O)N[C@@H](CC2CCCCC2)[C@@H](O)[C@@H](O)CC(C)C)cc1 [Enalkiren, H-((beta,beta-dimethyl)-beta-Ala)-(4-OCH3)Phe-His amide of 2(S)-amino-1cyclohexyl-3(R), 4(S)-dihydroxy-6-methylheptane diacetic acid salt]
Face Lesions erythema, lesion ranking [1]: 3 | Right Elbow Lesions erythema, lesion ranking [1]: 4 | Right Elbow Lesions lesion severity, lesion ranking [1]: 4 | Scalp Lesions erythema, lesion ranking [1]: 4 | Face Lesions erythema, lesion ranking [2]: 2 | Right Elbow Lesions erythema, lesion ranking [2]: 3 | Right Elbow Lesions lesion severity, lesion ranking [2]: 3 | Scalp Lesions erythema, lesion ranking [2]: 3 | Face Lesions erythema, lesion ranking [3]: 2 | Right Elbow Lesions erythema, lesion ranking [3]: 3 | Right Elbow Lesions lesion severity, lesion ranking [3]: 3 | Scalp Lesions erythema, lesion ranking [3]: 3 | Face Lesions erythema, lesion ranking [4]: 3 | Right Elbow Lesions erythema, lesion ranking [4]: 4 | Right Elbow Lesions lesion severity, lesion ranking [4]: 4 | Scalp Lesions erythema, lesion ranking [4]: 4
